Laboratory results published in patent publication US8173694B2, “Therapeutic agent” (Pentraxin Therapeutics Limited, priority 2001, dated 2012).

Molecular target: T1, radiolabelled mouse SAP (Mus musculus, UniProt P12246)
T1 construct: intravenous injection of ^125I-labelled pure human or mouse SAP at time zero
T1 sequence (P12246 21-224): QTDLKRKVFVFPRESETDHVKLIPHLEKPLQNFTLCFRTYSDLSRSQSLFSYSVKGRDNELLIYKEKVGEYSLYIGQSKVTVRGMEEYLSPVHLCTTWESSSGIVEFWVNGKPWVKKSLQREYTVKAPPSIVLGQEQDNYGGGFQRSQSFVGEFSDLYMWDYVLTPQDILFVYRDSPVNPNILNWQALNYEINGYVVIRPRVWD
Experiment: Plasma clearance of radiolabelled mouse SAP tracer in mice
Type: in vivo
Method: Clearance from the amyloid deposits, catabolism and excretion of the human SAP tracer were monitored globally by whole body counting of the mice (left), and the total amount of mouse SAP in the amyloidotic organs was determined after killing the animals on day 5 (right). […] Immediately after the 15 minute bleed, two groups, one that had received human SAP and the other mouse SAP, received a single intraperitoneal injection of 5 mg of (R)-1-[6-(R)-2-Carboxy-pyrrolidin-1-yl]-6-oxo-hexanoyl]pyrrolidine-2-carboxylic acid (desapin). Tracer remaining in the circulation is expressed as the mean (SD) percentage of the amount at the 15 minute time point for each group. […] In one of each of the pairs of groups receiving mouse or human SAP respectively, the tracer had been mixed with (R)-1-[6-(R)-2-Carboxy-pyrrolidin-1-yl]-6-oxo-hexanoyl]pyrrolidine-2-carboxylic acid (desapin) and incubated in vitro before injection into the animals. Tracer remaining in the circulation is expressed as mean (SD) total radioactivity per gram of blood in each group. Bottom panel: effect of administration of (R)-1-[6-(R)-2-Carboxy-pyrrolidin-1-yl]-6-oxo-hexanoyl]pyrrolidine-2-carboxylic acid (desapin) in the drinking water at the concentrations shown, on circulating human SAP values in human SAP transgenic mice. Mice of approximately 20 g body weight consume about 3 ml water per day. […]

Clearance of radiolabelled mouse SAP (single intraperitoneal injection of 5 mg): no significant effect | Clearance of radiolabelled mouse SAP preincubated with drug in vitro (tracer preincubated with drug before intravenous injection into normal mice): extremely rapidly cleared
SMILES: O=C(O)[C@H]1CCCN1C(=O)CCCCC(=O)N1CCC[C@@H]1C(=O)O [(R)-1-[6-(R)-2-Carboxy-pyrrolidin-1-yl]-6-oxo-hexanoyl]pyrrolidine-2-carboxylic acid]
